Measurements as given in US8377963B2, “Insulin-regulated aminopeptidase (IRAP) inhibitors and uses thereof” (Howard Florey Institute, priority 2007, dated 2013).

Tested on: rats
Assay: Novel object recognition task
Assay type: in vivo, rat
Conditions: for Recognition Index: rats, n=10/group
Experimental: All experiments were performed according to the National Health and Medical Research Council of Australia “Code of practise for the care and use of animals for scientific purposes”. Male Spraque Dawley rats, (250-270 g) are housed individually and given water and standard rat chow ad libitum. On the day of surgery, the rats were anaesthetized with 5% isofluorane, placed in a stereotaxic frame and maintained on 2% isofluorane for the duration of the cannula implantation procedure. The rats were stereotaxically implanted with chronic indwelling cannula (Plastics One) into the cerebral lateral ventricles using the following flat skull coordinates 0.8 mm posterior to Bregma, 1.55 mm lateral to midline and 3.5 mm ventral to the dura. The cannula was then secured to the skull with stainless steel screws and dental cement. Seven days following surgery, proper cannula placement was verified by a bolus injection of angiotensin II (1 nmol/μl).
The rats are allowed at least 5 days post-operative recovery prior to use in any behavioural paradigms. On the day of the acquisition trial, the rats were habituated for 5 min in the testing box (made from grey perspex of dimensions 60 cm width×60 cm length×50 cm height) in diffuse dim light and then returned to their home cage. The animals were then rested for at least 2 h and then injected with 1 nmol or 0.1 nmol Compound 2 in 2 μl of 10% dimethyl sulfoxide (DMSO). Control animals received 2 μl of 10% DMSO. Following drug administration, the rats were returned to their home cage for 5 min and then placed in the testing box facing the opposite direction to 2 identical objects that have been secured to the floor in adjacent corners of the box. The rats were allowed 5 min to explore the objects and the definition of explore is that the animal's nose is less than 2 cm from object when it is facing the object. […] The recognition index was determined as the time spent exploring the novel object minus the time spent on the familiar object divided by the time spent on both object.

SMILES: CCOC(=O)C1=C(NC(C)=O)Oc2cc(O)ccc2C1c1cccnc1 (stereo not drawn) [Compound 2, Ethyl 2-(acetylamino)-7-hydroxy-4-pyridin-3-yl-4H-chromene-3-carboxylate]
- Recognition Index (0.1 nmol intracerebroventricularly): 35.82 ± 7.30
- Recognition Index (1 nmol intracerebroventricularly): 45.09 ± 9.97
- recognition of a novel object compared to vehicle treated control rats (1 and 0.1 nmole intracerebroventricularly, after 24 h, p<0.05): better recognition of a novel object
